This note sets out measurements from US9205064B2, “Methods for the diagnosis of oncological disorders using epimetabolic shifters, multidimensional intracellular molecules, or environmental influencers” (Berg LLC, priority 2009, dated 2015).

One experiment deals with SKMEL-28 mitochondria. Kind of experiment: 2-D gel electrophoresis of mitochondria enriched samples. It counts as cell-based.
Experiment [1] concerns Succinate Dehydrogenase B in NCIE0808 Mitopreps. Kind of experiment: Western blot of succinate dehydrogenase B in mitochondrial preparations. The class given is cell-based. To be noted: mitochondrial preparations of cancer cells. Here is the method:
The above blots were stripped by incubating for 30 minutes with methanol, followed by two 10 minute washes with TBS-T, then 30 minutes of incubation with Stripping buffer at 50 deg C., and followed by two washes with 100 ml or more of TBS-T for 30′ each. The blots were scanned in laser scanner to check for complete stripping. The blots were activated with methanol for 5 seconds, washed with water for 5 minutes, and TBST for 15 minutes. The blots were blocked for 1 hour with 5% blocking reagent in TBS-T at room temperature and then washed 3 times with TBS-T (1×-15′; 2×5′ each) and probed with the primary antibody for PKM2, SDHB or SDHC in 5% BSA in TBS-T by incubation overnight at 4 deg C. with gentle shaking. The primary antibody for SDHC (ABNOVA H00006391-M02; antimouse) was at 1:500 dilution. The primary antibody for SDHB was from Abcam ab4714-200; antimouse; at 1:1000 dilution. The primary antibody for Pyruvate Kinase M2 (PKM2) was from Novus Biologicals H00005315-D0IP; antirabbit; at 1:500 dilution. After incubation with primary antibodies, the membranes were washed 3 times with TBS-T (1×-15′; 2×5′ each) and probed with the secondary antibody (SDHB & C antimouse; and PKM2 antirabbit; 1:10,000 dilution) for 1 h on the orbital tilting shaker at room temperature. […]
In general terms: In western blotting, separated proteins are transferred to a membrane and probed.

For the next experiment, the system named is SkBr-3 Cells. Nature of the experiment: Real-time PCR Apoptosis Array. The class given is cell-based, human. Set-up: key: fold change in mRNA level; negative = down-regulation. Conditions: 50 um Q10, 24 hours. Here is the method: RNA was quantified by measuring Optical Density at 260 nm.
Changes in mRNA levels were evaluated using real-time PCR quantification to assess mRNA levels in pre-selected subsets containing […] pathway specific targets.
For the interpretation of mRNA results, the genes that were altered in their mRNA transcription by a two-fold level were identified and evaluated. The level of gene transcription to produce mRNA only provides a rough estimate of potential changes in the level of the expressed protein. The skilled artisan will appreciate that each mRNA may have different rates at which it is degraded or its translation inefficiently, thus resulting in differing amounts of protein.
The assay method of RT-PCR was utilized to provide a measure of mRNA level changes to a total of 84 apoptotic pathway related proteins.
In general terms: In qPCR the cycle at which signal appears reflects the starting amount.

The subject of the next experiment is HASMC cells. Kind of experiment: SeaHorse XF analyzer OCR and ECAR. The class given is cell-based, human. To be noted: hyperglycemic, hypoxic conditions. The text has this: Environmental influencers (e.g., MIMs or Epi-shifters) may also be identified by changes in cellular energetics. One example of the measurement of cellular energetics are the real-time measures of the consumption of molecular oxygen and/or the change in pH of the media of a cell culture. For example, the ability of a potential epi-shifter to modulate the metabolic state of a cell may be analyzed using, for example, the XF24 Analyzer (Seahorse, Inc.). This technology allows for real time detection of oxygen and pH changes in a monolayer of cells in order to evaluate the bioenergetics of a cell microenvironment. The XF24 Analyzer measures and compares the rates of oxygen consumption (OCR), which is a measure of aerobic metabolism, and extracellular acidification (ECAR), which is a measure of glycolysis, both key indicators of cellular energetics.
(SeaHorse Biosciences Inc, North Billerica, Mass.).
In this experiment, the OCR and extracellular acidification rate (ECAR) in normal cells lines were obtained in the presence and absence of CoQ10 to determine baseline values. It was observed that in its native nutrient environment, the basal OCR rates in normal cells lines are different, and are usually a function of the physiological roles of the cells in the body. […]
In Table 54 the measured baseline ECAR values (mpH/min) in HASMC were higher compared to that of HDFa. […]

For `COC1=C(OC)C(=O)C(C/C=C(\C)CC/C=C(\C)CC/C=C(\C)CC/C=C(\C)CC/C=C(\C)CC/C=C(\C)CC/C=C(\C)CC/C=C(\C)CC/C=C(\C)CCC=C(C)C)=C(C)C1=O` [Q10, Coenzyme Q10], in the experiment with SKMEL-28 mitochondria (100 μM Q10, 19 and 48 hr), the “PDIA3 (ER60 protein), spot 110: Response” value is “Up at 19 and 48 hr”; the “Unknown, spot 131: Response” value was “drops more for 19”. For the same compound, in the experiment on SKMEL-28 mitochondria (100 μM Q10, 48 hr), the “CCDC58, spot 75: Response” value is given as “Up at 48 hr”. Also, the “Unknown protein, spot 11: Response” value with SKMEL-28 mitochondria (100 μM Q10, after 6 hr) is listed as “drop to low levels”. In the experiment on SKMEL-28 mitochondria (100 μM Q10, only at 19 hr), the “Beta-Actin, spot 202: Response” value was “Up only at 19 hr”; the “KRT10 (Keratin 10), spot 185: Response” value is reported as “Up only at 19 hr”; the “MLEC (Malectin), spot 246: Response” value is given as “Up only at 19 hr”. Besides, the “SDH Subunit B protein levels” value in experiment [1] is “increase SDH protein levels”. For the same compound, in the experiment with SkBr-3 Cells, the “APAF1 mRNA Up-Down Regulation” value is reported as 2.6244, the “BAX mRNA Up-Down Regulation” value is 3.896, the “BCL2L1 mRNA Up-Down Regulation” value turned out to be 13.1957 and the “BCL2L11 mRNA Up-Down Regulation” value turned out to be 4.6012. In the experiment with SkBr-3 Cells, the “BCL2 mRNA Up-Down Regulation” value came out at 5.4717, the “BIRC6 mRNA Up-Down Regulation” value came out at 4.7966, the “BNIP2 mRNA Up-Down Regulation” value was 6.3291 and the “BRAF mRNA Up-Down Regulation” value worked out at 4.3832. Besides, in the experiment with SkBr-3 Cells, the “HPRT1 mRNA Up-Down Regulation” value is recorded as −160.6748 and the “XIAP mRNA Up-Down Regulation” value worked out at 4.3832. The ECAR rates entry in the experiment on HASMC cells is given as “downward trend”.
